# Experimental data reported in patent US10597388B2, “Pyridazinone herbicides” (FMC CORPORATION, priority 2014, dated 2020).
# Experiments:
# Assay in all cases: Test E greenhouse herbicide test, pre- and postemergence
# Type in all cases: in vivo
# Settings in all cases: Preemergence
# soybean (Glycine max) = system: soybean (Glycine max)
# Source text: (§1) Seeds of plant species selected from corn (Zea mays), soybean (Glycine max), velvetleaf (Abutilon theophrasti), lambsquarters (Chenopodium album), wild poinsettia (Euphorbia heterophylla), pigweed, palmer (palmer pigweed, Amaranthus palmeri), waterhemp (common waterhemp, Amaranthus rudis), surinam grass (Brachiaria decumbens), crabgrass, large (large crabgrass, Digitaria sanguinalis), crabgrass, Brazilian (Brazilian crabgrass, Digitaria horizontalis), panicum, fall (fall panicum, Panicum dichotomiflorum), foxtail, giant (giant foxtail, Setaria faberii), foxtail, green (green foxtail, Setaria viridis), goosegrass (Eleusine indica), johnsongrass (Sorghum halepense), ragweed (common ragweed, Ambrosia elatior), barnyardgrass (Echinochloa crus-galli), sandbur (southem sandbur, Cenchrus echinatus), arrowleaf sida (Sida rhombifolia), Italian ryegrass (Lolium multiflorum), dayflower (Virginia (VA) dayflower, Commelina virginica), field bindweed (Convolvulus arvensis), momingglory (Ipomoea coccinea), nightshade (eastern black nightshade, Solanum ptycanthum), kochia (Kochia scoparia), nutsedge, yellow (yellow nutsedge, Cyperus esculentus), horseweed (Conyza canadensis), and beggarticks (hairy beggarticks, Bidens pilosa), were planted into a silt loam soil and treated preemergence with test chemicals formulated in a non-phytotoxic solvent mixture which included a surfactant.
# (§2) At the same time, plants from these crop and weed species and also waterhemp_RES1, (ALS & Triazine resistant common waterhemp, Amaranthus rudis), and waterhemp_RES2, (ALS & HPPD resistant common waterhemp, Amaranthus rudis) were planted in pots containing Redi-Earth® planting medium (Scotts Company, 14111 Scottslawn Road, Marysville, Ohio 43041) comprising spaghnum peat moss, vermiculite, wetting agent and starter nutrients were treated with postemergence applications of test chemicals formulated in the same manner. Plants ranged in height from 2 to 18 cm for postemergence treatments (1- to 4-leaf stage). Treated plants and controls were maintained in a greenhouse for 14 to 21 d, after which time all species were compared to controls and visually evaluated. Plant response ratings, summarized in Table E, are based on a scale of 0 to 100 where 0 is no effect and 100 is complete control. A dash (-) response means no test result.
# [1] = system: goosegrass (Eleusine indica)
# Source text: as §1, §2
# [2] = system: pigweed, palmer (palmer pigweed, Amaranthus palmeri)
# Source text: as §1, §2
# [3] = system: crabgrass, Brazilian (Brazilian crabgrass, Digitaria horizontalis)
# Source text: as §1, §2
# [4] = system: crabgrass, large (large crabgrass, Digitaria sanguinalis)
# Source text: as §1, §2
# [5] = system: dayflower (Virginia (VA) dayflower, Commelina virginica)
# Source text: as §1, §2
# [6] = system: ragweed (common ragweed, Ambrosia elatior)
# Source text: as §1, §2
# [7] = system: barnyardgrass (Echinochloa crus-galli)
# Source text: as §1, §2
# [8] = system: horseweed (Conyza canadensis)
# Source text: as §1, §2
# [9] = system: Italian ryegrass (Lolium multiflorum)
# Source text: as §1, §2
# [10] = system: sandbur (southem sandbur, Cenchrus echinatus)
# Source text: as §1, §2
# [11] = system: beggarticks (hairy beggarticks, Bidens pilosa)
# Source text: as §1, §2
# kochia (Kochia scoparia) = system: kochia (Kochia scoparia)
# Source text: as §1, §2
# [12] = 62 g ai/ha, scale 0 to 100 (0 no effect, 100 complete control)
# [13] = 125 g ai/ha, scale 0 to 100 (0 no effect, 100 complete control)
# [14] = 31 g ai/ha, scale 0 to 100, 0 no effect, 100 complete control
# [15] = 125 g ai/ha, visual, scale 0 no effect to 100 complete control
# [16] = 250 g ai/ha, visual, scale 0 no effect to 100 complete control
# [17] = 16 g ai/ha, scale 0 to 100, 0 no effect, 100 complete control
structure (smiles),measurement,setting,value
Cc1cc(C)c2ccccc2c1-c1c(O)c(C)nn(C)c1=O [Compound 21],"Plant response rating, Soybean",soybean (Glycine max); [12],35
same,"Plant response rating, Soybean",soybean (Glycine max); [13],35
same,"Plant response rating, Soybean",soybean (Glycine max); [14],35
same,"Plant response rating, Goosegrass",[1]; [12],95
same,"Plant response rating, Goosegrass",[1]; [14],90
same,"Plant response rating, Goosegrass",[1]; [15],95
same,"Plant response rating, Pigweed, Palmer",[2]; [12],70
same,"Plant response rating, Pigweed, Palmer",[2]; [13],98
same,"Plant response rating, Pigweed, Palmer",[2]; [14],65
same,"Plant response rating, Crabgrass, Brazil",[3]; [12],98
same,"Plant response rating, Crabgrass, Brazil",[3]; [14],90
same,"Plant response rating, Crabgrass, Brazil",[3]; [15],100
same,"Plant response rating, Crabgrass, Large",[4]; [12],85
same,"Plant response rating, Crabgrass, Large",[4]; [14],65
same,"Plant response rating, Crabgrass, Large",[4]; [15],100
same,"Plant response rating, Dayflower, VA",[5]; [12],60
same,"Plant response rating, Dayflower, VA",[5]; [14],80
same,"Plant response rating, Dayflower, VA",[5]; [15],80
same,"Plant response rating, Ragweed",[6]; [12],98
same,"Plant response rating, Ragweed",[6]; [13],100
same,"Plant response rating, Ragweed",[6]; [14],95
same,"Plant response rating, Barnyardgrass",[7]; [12],70
same,"Plant response rating, Barnyardgrass",[7]; [14],40
same,"Plant response rating, Barnyardgrass",[7]; [15],90
same,"Plant response rating, Horseweed",[8]; [12],100
same,"Plant response rating, Horseweed",[8]; [14],100
same,"Plant response rating, Horseweed",[8]; [15],100
same,"Plant response rating, Ryegrass, Italian",[9]; [12],100
same,"Plant response rating, Ryegrass, Italian",[9]; [13],100
same,"Plant response rating, Ryegrass, Italian",[9]; [14],100
same,"Plant response rating, Sandbur",[10]; [12],80
same,"Plant response rating, Sandbur",[10]; [13],90
same,"Plant response rating, Sandbur",[10]; [14],80
same,"Plant response rating, Beggarticks",[11]; [12],100
same,"Plant response rating, Beggarticks",[11]; [14],100
same,"Plant response rating, Beggarticks",[11]; [15],100
same,"Plant response rating, Kochia",kochia (Kochia scoparia); [12],0
same,"Plant response rating, Kochia",kochia (Kochia scoparia); [14],0
same,"Plant response rating, Kochia",kochia (Kochia scoparia); [15],65
Cc1ccc2ccccc2c1-c1c(O)c(I)nn(C)c1=O [Compound 29],"Plant response rating, Soybean",soybean (Glycine max); [12],50
same,"Plant response rating, Soybean",soybean (Glycine max); [13],70
same,"Plant response rating, Soybean",soybean (Glycine max); [14],70
same,"Plant response rating, Soybean",soybean (Glycine max); [16],50
same,"Plant response rating, Goosegrass",[1]; [12],20
same,"Plant response rating, Goosegrass",[1]; [14],0
same,"Plant response rating, Goosegrass",[1]; [15],50
same,"Plant response rating, Goosegrass",[1]; [16],90
same,"Plant response rating, Pigweed, Palmer",[2]; [12],70
same,"Plant response rating, Pigweed, Palmer",[2]; [13],100
same,"Plant response rating, Pigweed, Palmer",[2]; [14],90
same,"Plant response rating, Pigweed, Palmer",[2]; [16],100
same,"Plant response rating, Crabgrass, Brazil",[3]; [12],75
same,"Plant response rating, Crabgrass, Brazil",[3]; [14],30
same,"Plant response rating, Crabgrass, Brazil",[3]; [15],70
same,"Plant response rating, Crabgrass, Brazil",[3]; [16],90
same,"Plant response rating, Crabgrass, Large",[4]; [12],25
same,"Plant response rating, Crabgrass, Large",[4]; [14],0
same,"Plant response rating, Crabgrass, Large",[4]; [15],40
same,"Plant response rating, Crabgrass, Large",[4]; [16],65
same,"Plant response rating, Dayflower, VA",[5]; [12],0
same,"Plant response rating, Dayflower, VA",[5]; [14],0
same,"Plant response rating, Dayflower, VA",[5]; [15],10
same,"Plant response rating, Dayflower, VA",[5]; [16],60
same,"Plant response rating, Ragweed",[6]; [12],85
same,"Plant response rating, Ragweed",[6]; [13],70
same,"Plant response rating, Ragweed",[6]; [14],90
same,"Plant response rating, Ragweed",[6]; [16],98
same,"Plant response rating, Barnyardgrass",[7]; [12],25
same,"Plant response rating, Barnyardgrass",[7]; [14],0
same,"Plant response rating, Barnyardgrass",[7]; [15],65
same,"Plant response rating, Barnyardgrass",[7]; [16],90
same,"Plant response rating, Horseweed",[8]; [12],100
same,"Plant response rating, Horseweed",[8]; [14],100
same,"Plant response rating, Horseweed",[8]; [15],100
same,"Plant response rating, Horseweed",[8]; [16],100
same,"Plant response rating, Ryegrass, Italian",[9]; [12],75
same,"Plant response rating, Ryegrass, Italian",[9]; [13],95
same,"Plant response rating, Ryegrass, Italian",[9]; [14],65
same,"Plant response rating, Ryegrass, Italian",[9]; [16],100
same,"Plant response rating, Sandbur",[10]; [12],75
same,"Plant response rating, Sandbur",[10]; [13],90
same,"Plant response rating, Sandbur",[10]; [14],75
same,"Plant response rating, Sandbur",[10]; [16],90
same,"Plant response rating, Beggarticks",[11]; [12],98
same,"Plant response rating, Beggarticks",[11]; [14],80
same,"Plant response rating, Beggarticks",[11]; [15],100
same,"Plant response rating, Beggarticks",[11]; [16],100
same,"Plant response rating, Kochia",kochia (Kochia scoparia); [12],0
same,"Plant response rating, Kochia",kochia (Kochia scoparia); [14],0
same,"Plant response rating, Kochia",kochia (Kochia scoparia); [15],25
same,"Plant response rating, Kochia",kochia (Kochia scoparia); [16],70
COC(=O)Oc1c(C)nn(C)c(=O)c1-c1c(C)sc2ccc(C)cc12 [Compound 80],"Plant response rating, Soybean",soybean (Glycine max); [12],0
same,"Plant response rating, Soybean",soybean (Glycine max); [13],0
same,"Plant response rating, Soybean",soybean (Glycine max); [17],0
same,"Plant response rating, Soybean",soybean (Glycine max); [14],0
same,"Plant response rating, Goosegrass",[1]; [12],30
same,"Plant response rating, Goosegrass",[1]; [13],20
same,"Plant response rating, Goosegrass",[1]; [17],0
same,"Plant response rating, Goosegrass",[1]; [14],0
same,"Plant response rating, Pigweed, Palmer",[2]; [12],70
same,"Plant response rating, Pigweed, Palmer",[2]; [13],70
same,"Plant response rating, Pigweed, Palmer",[2]; [17],20
same,"Plant response rating, Pigweed, Palmer",[2]; [14],35
same,"Plant response rating, Crabgrass, Brazil",[3]; [12],90
same,"Plant response rating, Crabgrass, Brazil",[3]; [13],100
same,"Plant response rating, Crabgrass, Brazil",[3]; [17],65
same,"Plant response rating, Crabgrass, Brazil",[3]; [14],75
same,"Plant response rating, Crabgrass, Large",[4]; [12],35
same,"Plant response rating, Crabgrass, Large",[4]; [13],35
same,"Plant response rating, Crabgrass, Large",[4]; [17],0
same,"Plant response rating, Crabgrass, Large",[4]; [14],0
same,"Plant response rating, Dayflower, VA",[5]; [12],0
same,"Plant response rating, Dayflower, VA",[5]; [13],10
same,"Plant response rating, Dayflower, VA",[5]; [17],0
same,"Plant response rating, Dayflower, VA",[5]; [14],0
same,"Plant response rating, Ragweed",[6]; [12],100
same,"Plant response rating, Ragweed",[6]; [13],100
same,"Plant response rating, Ragweed",[6]; [17],70
same,"Plant response rating, Ragweed",[6]; [14],70
same,"Plant response rating, Barnyardgrass",[7]; [12],20
same,"Plant response rating, Barnyardgrass",[7]; [13],20
same,"Plant response rating, Barnyardgrass",[7]; [17],0
same,"Plant response rating, Barnyardgrass",[7]; [14],0
same,"Plant response rating, Horseweed",[8]; [12],100
same,"Plant response rating, Horseweed",[8]; [13],100
same,"Plant response rating, Horseweed",[8]; [17],100
same,"Plant response rating, Horseweed",[8]; [14],100
same,"Plant response rating, Ryegrass, Italian",[9]; [12],98
same,"Plant response rating, Ryegrass, Italian",[9]; [13],98
same,"Plant response rating, Ryegrass, Italian",[9]; [17],50
same,"Plant response rating, Ryegrass, Italian",[9]; [14],70
same,"Plant response rating, Sandbur",[10]; [12],70
same,"Plant response rating, Sandbur",[10]; [13],75
same,"Plant response rating, Sandbur",[10]; [17],0
same,"Plant response rating, Sandbur",[10]; [14],65
same,"Plant response rating, Beggarticks",[11]; [12],100
same,"Plant response rating, Beggarticks",[11]; [13],100
same,"Plant response rating, Beggarticks",[11]; [17],100
same,"Plant response rating, Beggarticks",[11]; [14],85
same,"Plant response rating, Kochia",kochia (Kochia scoparia); [12],100
same,"Plant response rating, Kochia",kochia (Kochia scoparia); [13],100
same,"Plant response rating, Kochia",kochia (Kochia scoparia); [17],25
same,"Plant response rating, Kochia",kochia (Kochia scoparia); [14],90
